This passage reports TGI results from PubChem BioAssay (NCI).

Test systems include SNB-75 CNS; CCRF-CEM leukemia; MALME-3M melanoma; DMS 114 small cell lung; OVCAR-3 ovarian; OVCAR-4 ovarian; KM20L2 colon; ACHN renal; COLO 205 colon; DLD-1 colon; K-562 leukemia; UACC-257 melanoma; SF-268 CNS; UO-31 renal; MDA-MB-231 breast; DU-145 prostate; RPMI-8226 leukemia; CAKI-1 renal; T-47D breast; A498 renal.
Common to all, as to test: growth of human tumour cells (NCI), 48 h

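1) Cells in 96-well plates. 2) Compound, 48 h, 5 concentrations. 3) Linear interpolation between surrounding doses. 4) Unreached endpoint = highest concentration. TGI is the concentration that stops growth completely.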

Regarding `Cc1cn([C@@H]2C[C@H](CO)[C@@H](O)C2)c(=O)[nH]c1=O`, the TGI with SNB-75 CNS, with CCRF-CEM leukemia, in the experiment with MALME-3M melanoma, in the experiment with DMS 114 small cell lung, in the experiment on OVCAR-3 ovarian and in the experiment on OVCAR-4 ovarian was more than 100 µM throughout. Besides, the TGI in the experiment with KM20L2 colon, with ACHN renal, with COLO 205 colon, in the experiment on DLD-1 colon, in the experiment with K-562 leukemia and in the experiment with UACC-257 melanoma was more than 100 µM throughout. The TGI with SF-268 CNS and with UO-31 renal was more than 100 µM throughout.
Regarding `C=CCNC(=S)N=Nc1c(O)[nH]c2ccc([N+](=O)[O-])cc12`, the TGI in the experiment on MDA-MB-231 breast was more than 100 µM; with CCRF-CEM leukemia, 41.5 µM; in the experiment on DU-145 prostate, more than 100 µM; in the experiment on MALME-3M melanoma it was more than 100 µM; with RPMI-8226 leukemia it was more than 100 µM; with OVCAR-3 ovarian, more than 100 µM. Moreover, the TGI in the experiment with OVCAR-4 ovarian, in the experiment with ACHN renal, in the experiment with COLO 205 colon, with K-562 leukemia, in the experiment on UACC-257 melanoma and in the experiment on SF-268 CNS was more than 100 µM each time. Further, the TGI with CAKI-1 renal is more than 100 µM; with T-47D breast it was 87.4 µM; with UO-31 renal, more than 100 µM; in the experiment on A498 renal it was 91.7 µM.
On to `c1ccc2c(c1)c1c(n2CCOCCN2CCOCC2)CCCC1`, for which the TGI in the experiment on MDA-MB-231 breast was 47 µM; in the experiment on SNB-75 CNS it was 70.2 µM; in the experiment with CCRF-CEM leukemia, 69.4 µM; with DU-145 prostate it was more than 100 µM; in the experiment with MALME-3M melanoma it was 29 µM; with RPMI-8226 leukemia, 53.9 µM. Also, the TGI in the experiment with OVCAR-3 ovarian was more than 100 µM; in the experiment on OVCAR-4 ovarian, 86.8 µM; in the experiment on ACHN renal, more than 100 µM; in the experiment on K-562 leukemia, more than 100 µM; in the experiment on UACC-257 melanoma it was 47.8 µM; with SF-268 CNS, more than 100 µM. For the same compound, the TGI in the experiment with CAKI-1 renal is more than 100 µM; in the experiment on T-47D breast, more than 100 µM; in the experiment on UO-31 renal, more than 100 µM; with A498 renal it was 98.9 µM.
Take `CCC1=NC(C(F)(F)F)(C(F)(F)F)N=C(N2CCOCC2)O1`: the TGI in the experiment on MDA-MB-231 breast, in the experiment with SNB-75 CNS, with CCRF-CEM leukemia, in the experiment on DU-145 prostate, in the experiment on RPMI-8226 leukemia and in the experiment on OVCAR-3 ovarian was more than 100 µM in each case. In addition, the TGI with OVCAR-4 ovarian, in the experiment on ACHN renal, in the experiment on COLO 205 colon, with K-562 leukemia, in the experiment with UACC-257 melanoma and in the experiment on SF-268 CNS was more than 100 µM throughout. In addition, the TGI in the experiment on CAKI-1 renal, with T-47D breast and in the experiment on UO-31 renal was more than 100 µM throughout.
Take `N#CC1=C(c2ccccc2)NNC(c2ccc(Cl)cc2)CC1=O` (stereo unspecified): the TGI is 41.7 µM in the experiment on SNB-75 CNS; more than 100 µM in the experiment on MALME-3M melanoma; more than 100 µM in the experiment on DMS 114 small cell lung; more than 100 µM in the experiment on RPMI-8226 leukemia; more than 100 µM in the experiment on OVCAR-4 ovarian; 61.2 µM in the experiment with KM20L2 colon. Besides, the TGI with ACHN renal, in the experiment with DLD-1 colon, in the experiment with UACC-257 melanoma, in the experiment on SF-268 CNS, in the experiment with CAKI-1 renal and with A498 renal was more than 100 µM each time.
For the compound `Cc1ccc([N+](=O)[O-])cc1N=NC(=O)NNc1cc([N+](=O)[O-])ccc1C`, the TGI is 47.8 µM with MDA-MB-231 breast; 66.2 µM in the experiment with SNB-75 CNS; 40.2 µM in the experiment with CCRF-CEM leukemia; more than 100 µM with DU-145 prostate; more than 100 µM in the experiment on MALME-3M melanoma; more than 100 µM in the experiment on RPMI-8226 leukemia. In addition, the TGI in the experiment on OVCAR-3 ovarian is 39.9 µM; in the experiment on COLO 205 colon, more than 100 µM; in the experiment with K-562 leukemia, more than 100 µM; in the experiment with CAKI-1 renal it was 66.8 µM; with T-47D breast it was more than 100 µM; in the experiment on UO-31 renal, 78.9 µM. This compound displayed a TGI with A498 renal of 84.4 µM.
